# According to the NIST ThermoML archive (doi:10.1021/je060184i):
# ± gives the expanded uncertainty stated by the source.
# Assays:
# [1] = excess molar enthalpy (molar enthalpy of mixing); xn = mol fraction of the nth substance listed; conditions: 298.15 K, 101 kPa, Liquid, Flow calorimetry
# [2] = Liquid, Closed cell (Static) method
SMILES,vapor or sublimation pressure ([2]; 273.15 K) [kPa],vapor or sublimation pressure ([2]; 283.15 K) [kPa],vapor or sublimation pressure ([2]; 293.15 K) [kPa],vapor or sublimation pressure ([2]; 298.15 K) [kPa],vapor or sublimation pressure ([2]; 303.15 K) [kPa],vapor or sublimation pressure ([2]; 313.15 K) [kPa],vapor or sublimation pressure ([2]; 323.15 K) [kPa],vapor or sublimation pressure ([2]; 333.15 K) [kPa],vapor or sublimation pressure ([2]; 343.15 K) [kPa],vapor or sublimation pressure ([2]; 353.15 K) [kPa],vapor or sublimation pressure ([2]; 363.15 K) [kPa],further results
CCCOC(C)=O [propyl ethanoate] + CCCCCCC,–,–,–,–,–,–,–,–,–,–,–,excess molar enthalpy ([1]; x1 = 0.1087): 0.504 ± 0.011 kJ/mol; excess molar enthalpy ([1]; x1 = 0.1348): 0.599 ± 0.011 kJ/mol; excess molar enthalpy ([1]; x1 = 0.2399): 0.894 ± 0.012 kJ/mol; excess molar enthalpy ([1]; x1 = 0.3594): 1.08 ± 0.013 kJ/mol; excess molar enthalpy ([1]; x1 = 0.457): 1.14 ± 0.013 kJ/mol; excess molar enthalpy ([1]; x1 = 0.5004): 1.14 ± 0.013 kJ/mol; excess molar enthalpy ([1]; x1 = 0.5217): 1.14 ± 0.013 kJ/mol; excess molar enthalpy ([1]; x1 = 0.5427): 1.13 ± 0.013 kJ/mol; excess molar enthalpy ([1]; x1 = 0.5634): 1.11 ± 0.013 kJ/mol; excess molar enthalpy ([1]; x1 = 0.5838): 1.1 ± 0.013 kJ/mol; excess molar enthalpy ([1]; x1 = 0.6544): 1.02 ± 0.013 kJ/mol; excess molar enthalpy ([1]; x1 = 0.7495): 0.846 ± 0.012 kJ/mol; excess molar enthalpy ([1]; x1 = 0.8346): 0.628 ± 0.011 kJ/mol; excess molar enthalpy ([1]; x1 = 0.92): 0.338 ± 0.011 kJ/mol; excess molar enthalpy ([1]; x1 = 0.9526): 0.207 ± 0.01 kJ/mol
C=CCCCC [hex-1-ene] + CCCOC(C)=O,–,–,–,–,–,–,–,–,–,–,–,excess molar enthalpy ([1]; x2 = 0.0943): 0.259 ± 0.01 kJ/mol; excess molar enthalpy ([1]; x2 = 0.2122): 0.475 ± 0.011 kJ/mol; excess molar enthalpy ([1]; x2 = 0.3238): 0.59 ± 0.011 kJ/mol; excess molar enthalpy ([1]; x2 = 0.418): 0.631 ± 0.011 kJ/mol; excess molar enthalpy ([1]; x2 = 0.4609): 0.637 ± 0.011 kJ/mol; excess molar enthalpy ([1]; x2 = 0.4822): 0.635 ± 0.011 kJ/mol; excess molar enthalpy ([1]; x2 = 0.5032): 0.633 ± 0.011 kJ/mol; excess molar enthalpy ([1]; x2 = 0.5241): 0.628 ± 0.011 kJ/mol; excess molar enthalpy ([1]; x2 = 0.5449): 0.62 ± 0.011 kJ/mol; excess molar enthalpy ([1]; x2 = 0.6178): 0.581 ± 0.011 kJ/mol; excess molar enthalpy ([1]; x2 = 0.7186): 0.489 ± 0.011 kJ/mol; excess molar enthalpy ([1]; x2 = 0.8117): 0.366 ± 0.011 kJ/mol; excess molar enthalpy ([1]; x2 = 0.9076): 0.199 ± 0.01 kJ/mol
CCCOC(C)=O [propyl ethanoate] + C1CCCCC1,–,–,–,–,–,–,–,–,–,–,–,excess molar enthalpy ([1]; x1 = 0.1031): 0.532 ± 0.011 kJ/mol; excess molar enthalpy ([1]; x1 = 0.1888): 0.814 ± 0.012 kJ/mol; excess molar enthalpy ([1]; x1 = 0.2926): 1.02 ± 0.013 kJ/mol; excess molar enthalpy ([1]; x1 = 0.3829): 1.11 ± 0.013 kJ/mol; excess molar enthalpy ([1]; x1 = 0.4249): 1.12 ± 0.013 kJ/mol; excess molar enthalpy ([1]; x1 = 0.4667): 1.12 ± 0.013 kJ/mol; excess molar enthalpy ([1]; x1 = 0.4876): 1.12 ± 0.013 kJ/mol; excess molar enthalpy ([1]; x1 = 0.5084): 1.11 ± 0.013 kJ/mol; excess molar enthalpy ([1]; x1 = 0.5827): 1.05 ± 0.013 kJ/mol; excess molar enthalpy ([1]; x1 = 0.6881): 0.9 ± 0.012 kJ/mol; excess molar enthalpy ([1]; x1 = 0.7883): 0.682 ± 0.011 kJ/mol; excess molar enthalpy ([1]; x1 = 0.8945): 0.377 ± 0.011 kJ/mol
CCCOC(C)=O [propyl ethanoate],1.006 ± 0.018,1.909 ± 0.022,3.43 ± 0.029,4.514 ± 0.034,5.875 ± 0.041,9.645 ± 0.06,15.25 ± 0.09,23.33 ± 0.13,34.64 ± 0.19,50.07 ± 0.28,70.64 ± 0.38,vapor or sublimation pressure ([2]; 263.15 K): 0.4981 ± 0.01 kPa
CCCCCCC [heptane],1.531 ± 0.02,2.76 ± 0.025,4.736 ± 0.034,6.104 ± 0.04,7.787 ± 0.049,12.32 ± 0.07,18.85 ± 0.1,27.99 ± 0.15,40.43 ± 0.21,56.99 ± 0.29,78.59 ± 0.4,–
C1CCCCC1 [cyclohexane],3.73 ± 0.03,6.357 ± 0.043,10.37 ± 0.064,13.04 ± 0.078,16.26 ± 0.096,24.65 ± 0.14,36.24 ± 0.2,51.85 ± 0.28,72.39 ± 0.39,98.85 ± 0.53,132.33 ± 0.71,vapor or sublimation pressure ([2]; 263.15 K): 2.082 ± 0.023 kPa
C=CCCCC [hex-1-ene],7.687 ± 0.051,12.64 ± 0.076,19.98 ± 0.12,24.77 ± 0.14,30.46 ± 0.17,44.98 ± 0.25,64.6 ± 0.35,90.44 ± 0.49,123.79 ± 0.67,165.99 ± 0.89,218.5 ± 1.2,–
